{
  "source": "patent US9274128B2",
  "about": "“Transcriptional repression leading to parkinson's disease” (priority 2010, dated 2016)",
  "test_system": "proteasome",
  "assay": "PARIS steady state levels in SH-SY5Y cells treated with proteasome inhibitor (immunoblot)",
  "type": "cell-based, human",
  "settings": "for PARIS steady state level: 10 μM MG-132 vs DMSO control, normalized to β-actin",
  "protocol": "Human neuroblastoma SH-SY5Y cells (ATCC, Manassas, Va.) were grown in DMEM containing 10% FBS and antibiotics in a humidified 5% CO2/95% air atmosphere at 37° C. For transient transfection, cells were transfected with indicated amounts of target vector using Lipofectamine Plus (Invitrogen), according to manufacturer's instructions. For co-immunoprecipitation from cell cultures, SH-SY5Y cells were transfected with 2 μg of each plasmid, unless otherwise indicated. For the ubiquitination assay, SH-SY5Y cells were transiently transfected with 2 μg of pRK5-Myc-tagged parkin, Myc-tagged parkin (C431F, G430D, R275W, and Q311 X) pCMV-FLAG-PARIS, and 2 μg of pMT123-HA-ubiquitin plasmids for 48 hours. For the luciferase assay SH-SY5Y cells were transiently transfected with pCMV-empty vector or pCMV-FLAG-PARIS with either wild type or Q311X parkin, or pGL3-Basic, pGL3-PGC-1α promoter-Luciferase, or pGL3-PGC-1α promoter deletion mutant (a gift from Akyoshi Fukamizu, University of Tsukuba, Japan) (Daitoku et al., 2003) for firefly Luciferase assay and 0.1 μg pRL-TK vector (Promega) for Renilla luciferase control.\nThe tissues including nine different organs, eight different brain regions from C57/BL6 mouse, human brain, and mouse brain were homogenized in lysis buffer [10 mM Tris-HCl, pH 7.4, 150 mM NaCl, 5 mM EDTA, 0.5% Nonidet P-40, 10 mM Na-β-glycerophosphate, […] I and II (Sigma), and Complete Protease Inhibitor Mixture (Roche)], using a Diax 900 homogenizer. After homogenization, samples were rotated at 4° C. for 30 min for complete lysis, then the homogenate was centrifuged at 52,000 rpm for 20 min, and the resulting fractions were collected. Protein levels were quantified using the BCA kit (Pierce) with BSA standards and analyzed by immunoblot. Immunoblotting was performed with an antibody of interest and was performed with chemiluminescence (Pierce). The densitometric analyses of the bands were performed using ImageJ (NIH, http://rsb.info.nih.gov/ij/). Data are expressed as mean±S.E.M. The results were evaluated for statistical significance by applying the unpaired two-tailed Student's t-test or Student-Newman-Keuls. Differences were considered significant when p<0.05.",
  "note": "Peptide text beside a SMILES is read from it. * marks the point of attachment. Cbz = O=C(OCc1ccccc1)*",
  "data": [
    {"smiles": "CC(C)C[C@@H](C=O)NC(=O)[C@H](CC(C)C)NC(=O)[C@H](CC(C)C)NC(=O)OCc1ccccc1", "note": "[MG132] (Cbz-Leu-Leu-Leu-aldehyde)", "values": [
      {"measurement": "PARIS steady state level", "value": "increased approximately two to three fold"},
      {"measurement": "PARIS steady state level", "setting": "listed as MG-132", "value": "increases PARIS steady state levels"},
      {"measurement": "Parkin-mediated degradation of FLAG-PARIS", "setting": "MYC-parkin to FLAG-PARIS 4 to 1, 10 μM MG-132", "value": "blocked"},
      {"measurement": "Parkin-mediated degradation of FLAG-PARIS", "setting": "MYC-parkin to FLAG-PARIS 4 to 1, 10 μM MG-132, listed as MG-132", "value": "prevents the degradation of FLAG-PARIS"}
    ]}
  ]
}
